In publication PMC11109052, “Metabolism characterization and toxicity of N-hydap, a marine candidate drug for lung cancer therapy by LC–MS method” (Natural Products and Bioprospecting, 2024):

Tests used:
[1] = target: T1, UGT2B7 (Homo sapiens, UniProt P16662); assay: Incubation with recombinant human UGT isoforms: UGT2B7; assay type: in vitro ADME; conditions: recombinant UGT 2 μg/mL
T1 construct: purchased Cypex (Scotland, UK)
Protocol: Incubation of N-hydap (2.5 μM) with eight recombinant human CYP enzymes (CYP1A2, CYP2B6, CYP2C9, CYP2C19, CYP2D6, CYP3A4, CYP4A11 and CYP4F2) at three enzyme concentrations (2, 4, and 20 μg/mL) was conducted following the same procedure as described above for microsomes. Subsequently, incubation with N-hydap (1, 2.5, and 6 μM) and twelve recombinant human UGT isoforms (UGT1A1, UGT1A3, UGT1A4, UGT1A6, UGT1A7, UGT1A8, UGT1A9, UGT1A10, UGT2B4, UGT2B7, UGT2B15 and UGT2B17) was performed, with the enzyme concentration used at 2 μg/mL. All reactions were carried out in triplicate.

[2] = test system: Cyp1a2; assay: Real-time PCR mRNA level after 7 days gavage: Cyp1a2; assay type: in vivo; conditions: mice, 2, 5, 10 mg/kg p.o. 7 days; kidneys
Protocol: Mice were randomly divided into four groups, with eight animals in each group. The mice received oral pretreatment with N-hydap for 7 days at doses of 2, 5, and 10 mg/kg/day, which were considered as the low dose, medium dose, and high dose, respectively. Correspondingly, the control group received PBS. On the 8th day, the liver and kidneys were removed, and organs from eight mice per group were combined to prepare MLMs and MKMs using the detailed procedures above. Subsequently, we determined the activity of CYP and UGT enzymes by specific substrate metabolized with MLMs (0.5 mg/mL) and MKMs (0.2 mg/mL) in vitro. […] In the ex vivo experiments, the activity of enzymes was measured by quantifying the production of various metabolites (nM/mg protein/min). […] The measurements were performed using multiple reaction monitoring (MRM) transitions, which are specific mass spectrometry transitions used for quantification. […]
(§1) Total RNA from liver and kidney samples taken after 7 days of N-hydap gavage was extracted using the Animal Total RNA Isolation Kit (Foregene, Chengdu, Sichuan, China) following the manufacturer’s instructions. The concentrations of total RNA were determined by a nucleic acid concentration tester at 260/280 nm. […]

[3] = test system: Cyp2d22; assay: Real-time PCR mRNA level after 7 days gavage: Cyp2d22 (human homolog CYP2D6); assay type: in vivo, mice; design: key to CYP2D6 mNA expression: ↑: up-regulation; ↓: down-regulation; –: no change
Protocol: (§2) Mice were randomly divided into four groups, with eight animals in each group. The mice received oral pretreatment with N-hydap for 7 days at doses of 2, 5, and 10 mg/kg/day, which were considered as the low dose, medium dose, and high dose, respectively. Correspondingly, the control group received PBS. On the 8th day, the liver and kidneys were removed, and organs from eight mice per group were combined to prepare MLMs and MKMs using the detailed procedures above. Subsequently, we determined the activity of CYP and UGT enzymes by specific substrate metabolized with MLMs (0.5 mg/mL) and MKMs (0.2 mg/mL) in vitro. Specifically, the following selective substrates were used for the respective enzymes: PH (1 μM) for CYP1A2, DIC (1 μM) for CYP2C9, MP (90 μM) for CYP2C19, DM (1 μM) for CYP2D6, CZX (10 μM) for CYP2E1, Tes (1 μM) for CYP3A4, SN38 (1 μM) for UGT1A1, CACD (100 μM) for UGT1A3, Sero (20 μM) for UGT1A6, and Prop (1 μM) for UGT1A9. All substrates were dissolved in methanol or DMSO. The incubation procedure was carried out as mentioned above, and the reaction was terminated with VER (20 ng/mL) in ESI+ mode and CLP (200 ng/mL) in ESI− mode. In the ex vivo experiments, the activity of enzymes was measured by quantifying the production of various metabolites (nM/mg protein/min). The metabolites and their corresponding enzymes are as follows: APAP from PH, 4-OH-DIC from DIC, 4-OH-MP from MP, DXO from DM, 6-OH-CZX from CZX, 6-OH-Tes from Tes, SN38-G from SN38, CACD-G from CACD, Sero-G from Sero, Prop-G from Prop. The measurements were performed using multiple reaction monitoring (MRM) transitions, which are specific mass spectrometry transitions used for quantification. […]
as §1

[4] = test system: Ugt1a1; assay: Real-time PCR mRNA level after 7 days gavage: Ugt1a1; assay type: in vivo, mice; design: key to UGT1A1 mNA expression: ↑: up-regulation; ↓: down-regulation; –: no change
Protocol: as §2, §1

[5] = test system: CYP2C9; assay: DME activity ex vivo in MLMs and MKMs: CYP2C9 (4-OH-DIC from DIC); conditions: liver microsomes of mice pretreated 7 days p.o.
Protocol: as §2, with “The incubation procedure was carried out as mentioned above, and the reaction was terminated with VER (20 ng/mL) in ESI+ mode and CLP (200 ng/mL) in ESI− mode.” left out, “The metabolites and their corresponding enzymes are as follows: APAP from PH, 4-OH-DIC from DIC, 4-OH-MP from MP, DXO from DM, 6-OH-CZX from CZX, 6-OH-Tes from Tes, SN38-G from SN38, CACD-G from CACD, Sero-G from Sero, Prop-G from Prop.” left out

[6] = test system: CYP2D6; assay: DME activity ex vivo in MLMs and MKMs: CYP2D6 (DXO from DM); design: species or system mice; key to CYP2D6 Enzymatic activity: ↑: up-regulation; ↓: down-regulation; –: no change
Protocol: (§3) Mice were randomly divided into four groups, with eight animals in each group. The mice received oral pretreatment with N-hydap for 7 days at doses of 2, 5, and 10 mg/kg/day, which were considered as the low dose, medium dose, and high dose, respectively. Correspondingly, the control group received PBS. On the 8th day, the liver and kidneys were removed, and organs from eight mice per group were combined to prepare MLMs and MKMs using the detailed procedures above. Subsequently, we determined the activity of CYP and UGT enzymes by specific substrate metabolized with MLMs (0.5 mg/mL) and MKMs (0.2 mg/mL) in vitro. Specifically, the following selective substrates were used for the respective enzymes: PH (1 μM) for CYP1A2, DIC (1 μM) for CYP2C9, MP (90 μM) for CYP2C19, DM (1 μM) for CYP2D6, CZX (10 μM) for CYP2E1, Tes (1 μM) for CYP3A4, SN38 (1 μM) for UGT1A1, CACD (100 μM) for UGT1A3, Sero (20 μM) for UGT1A6, and Prop (1 μM) for UGT1A9. All substrates were dissolved in methanol or DMSO. The incubation procedure was carried out as mentioned above, and the reaction was terminated with VER (20 ng/mL) in ESI+ mode and CLP (200 ng/mL) in ESI− mode. In the ex vivo experiments, the activity of enzymes was measured by quantifying the production of various metabolites (nM/mg protein/min). The metabolites and their corresponding enzymes are as follows: APAP from PH, 4-OH-DIC from DIC, 4-OH-MP from MP, DXO from DM, 6-OH-CZX from CZX, 6-OH-Tes from Tes, SN38-G from SN38, CACD-G from CACD, Sero-G from Sero, Prop-G from Prop. The measurements were performed using multiple reaction monitoring (MRM) transitions, which are specific mass spectrometry transitions used for quantification. The optimized parameters for each metabolite, such as declustering potential and collision energy, were described in Supplementary Table 1. All experiments were conducted in triplicate, to ensure accuracy and reproducibility.

[7] = test system: Cyp2e1; assay: DME activity ex vivo in MLMs and MKMs: CYP2E1 (6-OH-CZX from CZX); design: species or system mice; key: ↑: up-regulation; ↓: down-regulation; –: no change
Protocol: as §2, with “The incubation procedure was carried out as mentioned above, and the reaction was terminated with VER (20 ng/mL) in ESI+ mode and CLP (200 ng/mL) in ESI− mode.” left out, “The metabolites and their corresponding enzymes are as follows: APAP from PH, 4-OH-DIC from DIC, 4-OH-MP from MP, DXO from DM, 6-OH-CZX from CZX, 6-OH-Tes from Tes, SN38-G from SN38, CACD-G from CACD, Sero-G from Sero, Prop-G from Prop.” left out

[8] = test system: CYP3A4; assay: DME activity ex vivo in MLMs and MKMs: CYP3A4 (6-OH-Tes from Tes); design: species or system mice; key to CYP3A4 Enzymatic activity: ↑: up-regulation; ↓: down-regulation; –: no change
Protocol: as §3

[9] = test system: Ugt1a1; assay: DME activity ex vivo in MLMs and MKMs: UGT1A1 (SN38-G from SN38); design: species or system mice; key to UGT1A1 Enzymatic activity: ↑: up-regulation; ↓: down-regulation; –: no change
Protocol: as §3

[10] = test system: RoRγ; design: method as in PMID 35259480; conditions: cited from earlier work

T1 sequence (P16662 24-529): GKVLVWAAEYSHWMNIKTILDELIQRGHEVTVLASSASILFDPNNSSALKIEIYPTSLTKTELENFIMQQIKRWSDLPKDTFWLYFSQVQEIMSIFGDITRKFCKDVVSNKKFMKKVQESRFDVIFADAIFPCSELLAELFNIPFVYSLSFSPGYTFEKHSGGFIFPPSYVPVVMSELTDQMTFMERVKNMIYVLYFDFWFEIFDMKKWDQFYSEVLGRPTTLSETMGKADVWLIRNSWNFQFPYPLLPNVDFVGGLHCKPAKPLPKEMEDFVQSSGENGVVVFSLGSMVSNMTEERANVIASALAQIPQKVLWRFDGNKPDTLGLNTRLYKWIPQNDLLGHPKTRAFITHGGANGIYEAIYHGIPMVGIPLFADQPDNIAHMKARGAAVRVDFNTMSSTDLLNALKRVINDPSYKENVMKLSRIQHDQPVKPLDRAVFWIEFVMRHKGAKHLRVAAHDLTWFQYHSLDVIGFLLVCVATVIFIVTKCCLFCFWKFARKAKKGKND

SMILES: CC1CCC2C(C=CC(C)C2C(=O)c2c(O)c(C3(O)CCC(O)C4OC43)cn(O)c2=O)C1 (centres unmarked) [N-hydap, N-Hydroxyapiosporamide]
- contribution of UGT2B7 to formation of N-hydap-G [1]: secondary contributors
- decrease of mRNA levels of Cyp1a2 [2]: 48%
- CYP2D6 mNA expression ([3]; Kidney): –
- CYP2D6 mNA expression ([3]; Liver): –
- mRNA levels of Cyp2d22 ([3]; mice, 2, 5, 10 mg/kg p.o. 7 days): No significant changes
- UGT1A1 mNA expression ([4]; Kidney): ↓
- UGT1A1 mNA expression ([4]; Liver): –
- mRNA levels of Ugt1a1 ([4]; mice, 2, 5, 10 mg/kg p.o. 7 days, kidneys): slight reduction
- reduction of formation rate of 4-OH-DIC vs control [5]: 70%
- CYP2D6 Enzymatic activity ([6]; Kidney): ↑
- CYP2D6 Enzymatic activity ([6]; Liver): ↓
- CYP2D6 inhibitor, experimental results ([6]; Table 4 experimental column): Inhibition in the liver
- reduction of formation rate of DXO vs control ([6]; liver microsomes of mice pretreated 7 days p.o.): 54%
- CYP2E1 Enzymatic activity ([7]; Kidney): ↑
- CYP2E1 Enzymatic activity ([7]; Liver): ↓
- CYP3A4 Enzymatic activity ([8]; Kidney): ↑
- CYP3A4 Enzymatic activity ([8]; Liver): ↑
- elevation of formation rate of 6-OH-Tes ([8]; MLMs and MKMs, range stated jointly for APAP, SN38-G, 6-OH-Tes and CDCA-G): 12%-331%
- CYP3A4 inhibitor, experimental results ([8]; Table 4 experimental column): No
- UGT1A1 Enzymatic activity ([9]; Kidney): –
- UGT1A1 Enzymatic activity ([9]; Liver): ↑
- elevation of formation rate of SN38-G ([9]; MLMs, range stated jointly for APAP, SN38-G, 6-OH-Tes and CDCA-G): 12%-331%
- action on RoRγ [10]: RoRγ antagonist
